The values that follow come from US20060116390A1, “Hepatitis c virus inhibitors” (priority 2003, published 2006).

Molecules are shown by their SMILES. Where two headings read alike, the source gives them in different places. Some results are limits rather than exact numbers.

The assay deals with HCV proteins in Rep5.1 cells (replicon cell line). In words: Inhibitory activity of HCV: cell-based ELISA in replicon cell line Rep5.1 (decrease of HCV proteins). On the set-up: species or system hepatitis C virus. Particulars: Hepatitis C virus, 72 h, Rep5.1 cells, 72 hours with drug. The procedure, abridged:
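HCV protein loss was quantified by ELISA on methanol/acetone-fixed cells 72 h after drug addition, probing with selected HCV-positive human plasma, and IC50 was defined as 50% reduction relative to untreated wells. The cells were Rep5.1 replicon cells cultured in DMEM-10 with 500 μg/ml G418, plated at 5000 per well and dosed with serial dilutions after 4 h attachment.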
A general note: ELISA stands for enzyme-linked immunosorbent assay.

The mark [1] stands for this setting: concentration at which 50% of HCV proteins was decreased, Table 2, read-out: IC50.
Where [2] appears, read: decrease of HCV proteins measured by HCV antibody, Table 1, read-out: Level (IC50 values classified).

As a reminder, the IC50 is the concentration that inhibits the measured activity by half. For the compound `CC1=C(C(=O)OCc2cc(F)cc(F)c2)CNC(=S)N1` [Compound 134, 6-methyl-2-thioxo-1,2,3,4-tetrahydro-pyrimidine-5-carboxylic acid 3,5-difluoro-benzyl ester], the 50% inhibitory concentration (IC50) reads like this: under setting [1], 600 nM; under setting [2], < 1000 nM.
For `CC1=C(C(=O)SCCc2ccccc2)C(CO)NC(=S)N1` (centres unmarked) [62″, 4-hydroxymethyl-6-methyl-2-thioxo-1,2,3,4-tetrahydro-pyrimidine-5-carbothioic acid S-phenethyl ester], in that order: > 100000 nM and > 20000 nM.
For the compound `O=C(O)CCCC1=C(C(=O)OCc2ccccc2)CNC(=S)N1` [Compound 170, 6-(3-carboxy-propyl)-2-thioxo-1,2,3,4-tetrahydro-pyrimidine-5-carboxylic acid benzyl ester], the IC50 by setting is: under setting [1], 90000 nM; under setting [2], > 20000 nM.
In the same order, the values of `CCNC(=O)OCC1NC(=S)NC(C)=C1C(=O)OCCCc1cccs1` (centres unmarked) [20″, 4-ethylcarbamoyloxymethyl-6-methyl-2-thioxo-1,2,3,4-tetrahydro-pyrimidine-5-carboxylic acid 3-thiophen-2-yl-propyl ester] are 33300 nM and > 20000 nM.
For `C=CCN(C)c1ccc(CCOC(=O)C2=C(C)NC(=S)NC2CO)cc1[N+](=O)[O-]` (centres unmarked) [96″, 4-Hydroxymethyl-6-methyl-2-thioxo-1,2,3,4-tetrahydro-pyrimidine-5-carboxylic acid 2-[4-(allyl-methyl-amino)-3-nitro-phenyl]-ethyl ester], in that order: 900 nM and < 1000 nM.
In the same order, the values of `COc1ccc(CCCOC(=O)C2=C(C)NC(=S)NC2)cc1` [Compound 88, 6-methyl-2-thioxo-1,2,3,4-tetrahydro-pyrimidine-5-carboxylic acid 3-(4-methoxy-phenyl)-propyl ester] are 700 nM and < 1000 nM.
Turning to `COc1cc(COC(=O)C2=C(C)NC(=S)NC2)ccc1OCc1ccccc1` [Compound 58, 6-methyl-2-thioxo-1,2,3,4-tetrahydro-pyrimidine-5-carboxylic acid 4-benzyloxy-3-methoxy-benzyl ester], the IC50 by setting is: under setting [1], < 500 nM; under setting [2], < 1000 nM.
For `CC1=C(C(=O)OCc2ccc(OC(=O)OC(C)(C)C)cc2)CNC(=S)N1` [Compound 228, 6-methyl-2-thioxo-1,2,3,4-tetrahydro-pyrimidine-5-carboxylic acid 4-t-butoxycarbonyloxy-benzyl ester], in that order: 23000 nM and 10000 to 20000 nM.
Regarding `CC1=C(C(=O)OCCc2nc3ccccc3o2)CNC(=S)N1` [Compound 265, 6-methyl-2-thioxo-1,2,3,4-tetrahydro-pyrimidine-5-carboxylic acid 2-benzoxazol-2-yl-ethyl ester], the IC50 runs as follows: under setting [1], 6000 nM; under setting [2], 1000 to 10000 nM.
In the same order, the values of `CC1=C(C(=O)OCCc2ccsc2F)CNC(=S)N1` [Compound 249, 6-methyl-2-thioxo-1,2,3,4-tetrahydro-pyrimidine-5-carboxylic acid 2-(2-fluoro-thiophen-3-yl)-ethyl ester] are < 400 nM and < 1000 nM.
In the same order, the values of `CC1=C(C(=O)OCCc2ccc(F)cc2)C(CO)NC(=S)N1` (centres unmarked) [5″, 4-hydroxymethyl-6-methyl-2-thioxo-1,2,3,4-tetrahydro-pyrimidine-5-carboxylic acid 2-(4-fluoro-phenyl)-ethyl ester] are 6000 nM and 1000 to 10000 nM.
In the same order, the values of `CC1=C(C(=O)OCc2cnc(-c3cccs3)s2)CNC(=S)N1` [Compound 210, 6-methyl-2-thioxo-1,2,3,4-tetrahydro-pyrimidine-5-carboxylic acid 2-thiophen-2-yl-thiazol-5-ylmethyl ester] are 3000 nM and 1000 to 10000 nM.
As to `CCn1c2ccccc2c2cc(COC(=O)C3=C(C)NC(=S)NC3)ccc21` [Compound 147, 6-methyl-2-thioxo-1,2,3,4-tetrahydro-pyrimidine-5-carboxylic acid 9-ethyl-9H-carbazol-3-ylmethyl ester], the IC50 under setting [1] was < 400 nM and the IC50 under setting [2] was < 1000 nM.
In the same order, the values of `CC1=C(C(=O)OCc2ccc(C(C)(C)C)cc2)CNC(=S)N1` [Compound 45, 6-methyl-2-thioxo-1,2,3,4-tetrahydro-pyrimidine-5-carboxylic acid 4-t-butyl-benzyl ester] are < 400 nM and < 1000 nM.
On to `CC1=C(C(=O)OCCc2ccsc2)C(CF)NC(=S)N1` (centres unmarked) [Compound 252, 4-fluoromethyl-6-methyl-2-thioxo-1,2,3,4-tetrahydro-pyrimidine-5-carboxylic acid 2-thiophen-3-yl-ethyl ester], for which the half-maximal inhibitory concentration (IC50) is, setting by setting: under setting [1], 1400 nM; under setting [2], 1000 to 10000 nM.
In the same order, the values of `CC1=C(C(=O)OCCc2ccc(F)cc2Cl)C(CO)NC(=S)N1` (centres unmarked) [58″, 4-hydroxymethyl-6-methyl-2-thioxo-1,2,3,4-tetrahydro-pyrimidine-5-carboxylic acid 2-(2-chloro-4-fluoro-phenyl)-ethyl ester] are 1800 nM and 1000 to 10000 nM.
In the same order, the values of `CC1=C(C(=O)SCc2ccco2)C(CF)NC(=S)N1` (centres unmarked) [39′, 4-fluoromethyl-6-methyl-2-thioxo-1,2,3,4-tetrahydro-pyrimidine-5-carbothioic acid S-furan-2-ylmethyl ester] are 2600 nM and 1000 to 10000 nM.
In the same order, the values of `COc1ccccc1CCOC(=O)C1=C(C)NC(=S)NC1CF` (centres unmarked) [42′, 4-fluoromethyl-6-methyl-2-thioxo-1,2,3,4-tetrahydro-pyrimidine-5-carboxylic acid 2-(2-methoxy-phenyl)-ethyl ester] are 4100 nM and 1000 to 10000 nM.
`CC1=C(C(=O)OC(C)Cc2ccsc2)CNC(=S)N1` (centres unmarked) [Compound 255, 6-methyl-2-thioxo-1,2,3,4-tetrahydro-pyrimidine-5-carboxylic acid 2-thiophen-3-yl-1-methyl-ethyl ester]: the IC50 is, setting by setting: under setting [1], 2000 nM; under setting [2], 1000 to 10000 nM.
In the case of `CC1=C(C(=O)OCc2ccc(Cl)cc2)CNC(=S)N1` [Compound 43, 6-methyl-2-thioxo-1,2,3,4-tetrahydro-pyrimidine-5-carboxylic acid 4-chloro-benzyl ester], the IC50 is < 400 nM under setting [1] and < 1000 nM under setting [2].
In the same order, the values of `CC1=C(C(=O)OCCc2cc(Cl)ccc2[N+](=O)[O-])C(CO)NC(=S)N1` (centres unmarked) [54″, 4-hydroxymethyl-6-methyl-2-thioxo-1,2,3,4-tetrahydro-pyrimidine-5-carboxylic acid 2-(5-chloro-2-nitro-phenyl)-ethyl ester] are 8000 nM and 1000 to 10000 nM.
Regarding `CCOC(=O)CCCC1=C(C(=O)OCc2ccccc2)CNC(=S)N1` [Compound 169, 6-(3-ethoxycarbonyl-propyl)-2-thioxo-1,2,3,4-tetrahydro-pyrimidine-5-carboxylic acid benzyl ester], the IC50 is 9000 nM under setting [1] and 1000 to 10000 nM under setting [2].
For `CC1=C(C(=O)OCCc2ccsc2)C(C(F)(F)F)NC(=S)N1` (centres unmarked) [8′, 6-methyl-2-thioxo-4-trifluoromethyl-1,2,3,4-tetrahydro-pyrimidine-5-carboxylic acid 2-thiophen-3-yl-ethyl ester], in that order: 21000 nM and > 20000 nM.
`COc1ccc(C2(COC(=O)C3=C(C)NC(=S)NC3CF)CC2)cc1` (centres unmarked) [66′, 4-fluoromethyl-6-methyl-2-thioxo-1,2,3,4-tetrahydro-pyrimidine-5-carboxylic acid 1-(4-methoxy-phenyl)-cyclopropylmethyl ester]: the IC50 is, setting by setting: under setting [1], 8000 nM; under setting [2], 1000 to 10000 nM.
For `CCc1ccc(CCOC(=O)C2=C(C)NC(=S)NC2CF)o1` (centres unmarked) [23′, 4-fluoromethyl-6-methyl-2-thioxo-1,2,3,4-tetrahydro-pyrimidine-5-carboxylic acid 2-(5-ethyl-furan-2-yl)-ethyl ester], in that order: 700 nM and < 1000 nM.
In the same order, the values of `CC1=C(C(=O)OCCS(=O)(=O)c2ccc(C)cc2)CNC(=S)N1` [Compound 201, 6-methyl-2-thioxo-1,2,3,4-tetrahydro-pyrimidine-5-carboxylic acid 2-(toluene-4-sulfonyl)-ethyl ester] are 13000 nM and 10000 to 20000 nM.
For `COc1ccc(COC(=O)C2=C(C)NC(=S)NC2)c(OC)c1C` [Compound 137, 6-methyl-2-thioxo-1,2,3,4-tetrahydro-pyrimidine-5-carboxylic acid 2,4-dimethoxy-3-methyl-benzyl ester], in that order: 10000 nM and 1000 to 10000 nM.
`CC1=C(C(=O)OCc2ccc(Cl)cc2)C(CF)NC(=S)N1` (centres unmarked) [34′, 4-fluoromethyl-6-methyl-2-thioxo-1,2,3,4-tetrahydro-pyrimidine-5-carboxylic acid 4-chloro-benzyl ester]: the half-inhibitory concentration (IC50) by setting is: under setting [1], 700 nM; under setting [2], < 1000 nM.
For `CC1=C(C(=O)OCCOCCc2ccsc2)C(CO)NC(=S)N1` (centres unmarked) [16″, 4-hydroxymethyl-6-methyl-2-thioxo-1,2,3,4-tetrahydro-pyrimidine-5-carboxylic acid 2-(2-thiophen-3-yl-ethoxy)-ethyl ester], in that order: > 100000 nM and > 20000 nM.
In the same order, the values of `CC1=C(C(=O)OCc2ccc(F)cc2Cl)CNC(=S)N1` [Compound 70, 6-methyl-2-thioxo-1,2,3,4-tetrahydro-pyrimidine-5-carboxylic acid 2-chloro-4-fluoro-benzyl ester] are < 500 nM and < 1000 nM.
In the same order, the values of `CC1=C(C(=O)OCc2ccccc2SCC(C)C)CNC(=S)N1` [Compound 111, 6-methyl-2-thioxo-1,2,3,4-tetrahydro-pyrimidine-5-carboxylic acid 2-isobutylsulfanyl-benzyl ester] are 2000 nM and 1000 to 10000 nM.
